Measurements published in ChEMBL document CHEMBL1201862, “PubChem BioAssay data set” (2004).
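Method: 48-hour compound exposure of cells in 96-well plates, five concentrations, linear interpolation of endpoints. GI50 marks 50% less growth.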 Activity calls are given as the source filed them. No stated cut-off is given here; in the data, active = GI50 up to about 1.1 µM and inactive = higher.

Columns and labels:
Test in all cases: DTP human tumour cell line panel, 48 h
786-0 = tested on: 786-0
A549 = tested on: A549
ACHN = tested on: ACHN
CAKI-1 = tested on: CAKI-1
CCRF-CEM = tested on: CCRF-CEM
COLO 205 = tested on: COLO 205
DLD-1 = tested on: DLD-1
DMS-114 = tested on: DMS-114
DMS-273 = tested on: DMS-273
EKVX = tested on: EKVX
HCC 2998 = tested on: HCC 2998
HCT-116 = tested on: HCT-116
HCT-15 = tested on: HCT-15
HOP-18 = tested on: HOP-18
HOP-62 = tested on: HOP-62
HT-29 = tested on: HT-29
IGROV-1 = tested on: IGROV-1
K562 = tested on: K562
KM-20L2 = tested on: KM-20L2
KM12 = tested on: KM12
LOX IMVI = tested on: LOX IMVI
LXFL 529 = tested on: LXFL 529
M14 = tested on: M14
MOLT-4 = tested on: MOLT-4
Malme-3M = tested on: Malme-3M
NCI-H226 = tested on: NCI-H226
NCI-H23 = tested on: NCI-H23
NCI-H460 = tested on: NCI-H460
NCI-H522 = tested on: NCI-H522
OVCAR-3 = tested on: OVCAR-3
OVCAR-4 = tested on: OVCAR-4
OVCAR-5 = tested on: OVCAR-5
OVCAR-8 = tested on: OVCAR-8
RPMI-8226 = tested on: RPMI-8226
RXF 393 = tested on: RXF 393
SF-268 = tested on: SF-268
SF-295 = tested on: SF-295
SK-MEL-28 = tested on: SK-MEL-28
SK-MEL-2 = tested on: SK-MEL-2
SK-MEL-5 = tested on: SK-MEL-5
SK-OV-3 = tested on: SK-OV-3
SN12C = tested on: SN12C
SNB-19 = tested on: SNB-19
SNB-75 = tested on: SNB-75
SNB-78 = tested on: SNB-78
SW-620 = tested on: SW-620
TK-10 = tested on: TK-10
U-251 = tested on: U-251
UACC-257 = tested on: UACC-257
UACC-62 = tested on: UACC-62
UO-31 = tested on: UO-31
XF498 = tested on: XF498
HL-60 = tested on: HL-60
M19-MEL = tested on: M19-MEL
SR = tested on: SR
A498 = tested on: A498
HOP-92 = tested on: HOP-92
SF-539 = tested on: SF-539

In the case of O=C1C(Cl)C(c2ccc([N+](=O)[O-])cc2)N1n1cnc2ccccc2c1=O (stereo not drawn), the GI50 (786-0) is reported as 20.7 µM (inactive), the GI50 (A549) is reported as 30.7 µM (inactive) and the GI50 (ACHN) is reported as 61.5 µM (inactive). The GI50 (CAKI-1) was 60.1 µM (inactive), the GI50 (CCRF-CEM) was 17.6 µM (inactive) and the GI50 (COLO 205) was > 100 µM (inactive). For the same molecule, the GI50 (DLD-1) was 53.1 µM (inactive), the GI50 (DMS-114) was 20.2 µM (inactive) and the GI50 (DMS-273) was 34.5 µM (inactive). For the same molecule, the GI50 (EKVX) was 12.7 µM (inactive), the GI50 (HCC 2998) was 73.6 µM (inactive) and the GI50 (HCT-116) was 43.9 µM (inactive). For the same molecule, the GI50 (HCT-15) was over 100 µM, the GI50 (HOP-18) was 40.6 µM (inactive) and the GI50 (HOP-62) was 34.5 µM (inactive). The GI50 (HT-29) was > 100 µM (inactive), the GI50 (IGROV-1) was 75.5 µM (inactive) and the GI50 (K562) was 36.9 µM (inactive). For the same molecule, the GI50 (KM-20L2) was > 100 µM (inactive), the GI50 (KM12) was 89.9 µM (inactive) and the GI50 (LOX IMVI) was 87.1 µM (inactive). For the same molecule, the GI50 (LXFL 529) was 22.7 µM (inactive), the GI50 (M14) was 32.3 µM (inactive) and the GI50 (MOLT-4) was 49.1 µM (inactive). For the same molecule, the GI50 (Malme-3M) was > 100 µM (inactive), the GI50 (NCI-H226) was 51.6 µM (inactive) and the GI50 (NCI-H23) was 32.6 µM (inactive). For the same molecule, the GI50 (NCI-H460) was 17.2 µM (inactive), the GI50 (NCI-H522) was 49.8 µM (inactive) and the GI50 (OVCAR-3) was 52.4 µM (inactive). For the same molecule, the GI50 (OVCAR-4) was 5.64 µM (inactive), the GI50 (OVCAR-5) was > 100 µM (inactive) and the GI50 (OVCAR-8) was 19.1 µM (inactive). For the same molecule, the GI50 (RPMI-8226) was > 10 µM (inactive), the GI50 (RXF 393) was 23.6 µM (inactive) and the GI50 (SF-268) was 28.6 µM (inactive). For the same molecule, the GI50 (SF-295) was 17.6 µM (inactive), the GI50 (SK-MEL-28) was 24.1 µM (inactive) and the GI50 (SK-MEL-2) was > 100 µM (inactive). For the same molecule, the GI50 (SK-MEL-5) was 57 µM (inactive), the GI50 (SK-OV-3) was 9.75 µM (inactive) and the GI50 (SN12C) was 42.3 µM (inactive). For the same molecule, the GI50 (SNB-19) was 73.3 µM (inactive), the GI50 (SNB-75) was 13.9 µM (inactive) and the GI50 (SNB-78) was 24.1 µM (inactive). The GI50 (SW-620) was 97.7 µM (inactive), the GI50 (TK-10) was 25.3 µM (inactive) and the GI50 (U-251) was 47.8 µM (inactive). For the same molecule, the GI50 (UACC-257) was > 100 µM (inactive), the GI50 (UACC-62) was 70.5 µM (inactive) and the GI50 (UO-31) was 71 µM (inactive). For the same molecule, the GI50 (XF498) was 64.9 µM (inactive).
C[C@]12CCC3[C@@H](CCC45OC4C(=O)CC[C@]35C)C1Cc1cnn(-c3ccc(F)cc3)c1N2 (stereo partly drawn) was tested, and the GI50 (786-0) was 18.6 µM (inactive), the GI50 (A549) was 65.5 µM (inactive) and the GI50 (ACHN) was 33.6 µM (inactive). For the same molecule, the GI50 (CCRF-CEM) was 21.3 µM (inactive), the GI50 (COLO 205) was 40.5 µM (inactive) and the GI50 (DMS-114) was 19.4 µM (inactive). For the same molecule, the GI50 (DMS-273) was 18.8 µM (inactive), the GI50 (EKVX) was 49.9 µM (inactive) and the GI50 (HCT-116) was 15.3 µM (inactive). For the same molecule, the GI50 (HCT-15) was 17.5 µM, the GI50 (HL-60) was 17.6 µM (inactive) and the GI50 (HOP-18) was 37 µM (inactive). The GI50 (HOP-62) was 29.6 µM (inactive), the GI50 (HT-29) was 17.3 µM (inactive) and the GI50 (K562) was 20.9 µM (inactive). The GI50 (KM-20L2) was 22.6 µM (inactive), the GI50 (KM12) was 25.1 µM (inactive) and the GI50 (LOX IMVI) was 16.7 µM (inactive). For the same molecule, the GI50 (LXFL 529) was 32.8 µM (inactive), the GI50 (M14) was 48.6 µM (inactive) and the GI50 (M19-MEL) was 34.3 µM (inactive). For the same molecule, the GI50 (MOLT-4) was 22.9 µM (inactive), the GI50 (Malme-3M) was > 100 µM (inactive) and the GI50 (NCI-H226) was 33.4 µM (inactive). For the same molecule, the GI50 (NCI-H23) was 22.2 µM (inactive), the GI50 (NCI-H460) was 28.6 µM (inactive) and the GI50 (NCI-H522) was 15 µM (inactive). The GI50 (OVCAR-4) was > 10 µM (inactive), the GI50 (OVCAR-8) was 29.8 µM (inactive) and the GI50 (RPMI-8226) was 19.5 µM (inactive). The GI50 (RXF 393) was 27.9 µM (inactive), the GI50 (SF-268) was 23.6 µM (inactive) and the GI50 (SF-295) was 39 µM (inactive). For the same molecule, the GI50 (SK-MEL-28) was 26.6 µM (inactive), the GI50 (SK-MEL-2) was 29.9 µM (inactive) and the GI50 (SK-MEL-5) was 31.5 µM (inactive). The GI50 (SK-OV-3) was 58.1 µM (inactive), the GI50 (SN12C) was 23.3 µM (inactive) and the GI50 (SNB-19) was 27.2 µM (inactive). The GI50 (SNB-75) was 38.6 µM (inactive), the GI50 (SNB-78) was 25.6 µM (inactive) and the GI50 (SR) was 27.2 µM (inactive). For the same molecule, the GI50 (SW-620) was 31.8 µM (inactive), the GI50 (TK-10) was > 100 µM (inactive) and the GI50 (U-251) was 28.4 µM (inactive). For the same molecule, the GI50 (UACC-257) was 35.9 µM (inactive), the GI50 (UACC-62) was 19.7 µM (inactive) and the GI50 (UO-31) was 87.9 µM (inactive). The GI50 (XF498) was 31.8 µM (inactive).
With Cc1ccc(NC(=O)C(=O)CC(=O)c2ccccc2)cc1C the GI50 (786-0) was > 100 µM (inactive), the GI50 (A498) was > 100 µM (inactive) and the GI50 (A549) was > 100 µM (inactive). For the same molecule, the GI50 (ACHN) was > 100 µM (inactive), the GI50 (CAKI-1) was 56.8 µM (inactive) and the GI50 (COLO 205) was > 100 µM (inactive). For the same molecule, the GI50 (DLD-1) was > 100 µM (inactive), the GI50 (DMS-114) was 86.9 µM (inactive) and the GI50 (DMS-273) was 56.8 µM (inactive). For the same molecule, the GI50 (EKVX) was > 100 µM (inactive), the GI50 (HCC 2998) was > 100 µM (inactive) and the GI50 (HCT-116) was 60.3 µM (inactive). The GI50 (HCT-15) was 37.2 µM, the GI50 (HOP-18) was > 100 µM (inactive) and the GI50 (HOP-62) was > 100 µM (inactive). For the same molecule, the GI50 (HOP-92) was > 100 µM (inactive), the GI50 (HT-29) was > 100 µM (inactive) and the GI50 (IGROV-1) was 69.8 µM (inactive). For the same molecule, the GI50 (KM-20L2) was > 100 µM (inactive), the GI50 (KM12) was 35.8 µM (inactive) and the GI50 (LOX IMVI) was > 100 µM (inactive). The GI50 (LXFL 529) was 76.9 µM (inactive), the GI50 (M14) was > 100 µM (inactive) and the GI50 (M19-MEL) was > 100 µM (inactive). For the same molecule, the GI50 (Malme-3M) was > 100 µM (inactive), the GI50 (NCI-H226) was > 100 µM (inactive) and the GI50 (NCI-H23) was > 100 µM (inactive). For the same molecule, the GI50 (NCI-H460) was > 100 µM (inactive), the GI50 (NCI-H522) was 98.9 µM (inactive) and the GI50 (OVCAR-3) was 33.6 µM (inactive). For the same molecule, the GI50 (OVCAR-4) was > 100 µM (inactive), the GI50 (OVCAR-5) was > 100 µM (inactive) and the GI50 (OVCAR-8) was > 100 µM (inactive). The GI50 (RPMI-8226) was > 100 µM (inactive), the GI50 (RXF 393) was > 100 µM (inactive) and the GI50 (SF-268) was > 100 µM (inactive). For the same molecule, the GI50 (SF-295) was > 100 µM (inactive), the GI50 (SF-539) was > 100 µM (inactive) and the GI50 (SK-MEL-28) was > 100 µM (inactive). The GI50 (SK-MEL-5) was > 100 µM (inactive), the GI50 (SK-OV-3) was > 100 µM (inactive) and the GI50 (SN12C) was > 100 µM (inactive). The GI50 (SNB-19) was > 100 µM (inactive), the GI50 (SNB-75) was > 100 µM (inactive) and the GI50 (SNB-78) was > 100 µM (inactive). The GI50 (SW-620) was > 100 µM (inactive), the GI50 (TK-10) was > 100 µM (inactive) and the GI50 (U-251) was > 100 µM (inactive). The GI50 (UACC-257) was > 100 µM (inactive), the GI50 (UACC-62) was 70.6 µM (inactive) and the GI50 (UO-31) was > 100 µM (inactive). The GI50 (XF498) was > 100 µM (inactive).
